{"source": "patent US5049552A", "about": "“Compositions containing hexadecylphosphocholine and use thereof” (Max-Planck-Gesellschaft fur Foerderung der Wissenschaften …, priority 1985, dated 1991)", "key": {"[1]": {"test": "subacute toxicity during a treatment of 5 weeks (mortality, median survival time)", "format": "in vivo, rat", "source_text": "(§1) Hexadecylphosphocholine is a known substance. […] Therefore, in spite of an anti-tumor action, the median survival time in comparison with the control was shortened by 72% in the case of octadecylphosphocholine-treated animals."}, "tumors": {"system": "tumors", "test": "anti-tumor action and toxicity, general statement (homologous alkyl compounds)", "details": "for anti-tumor action / toxicity: general statement"}, "L1210": {"system": "L1210", "test": "L1210 colony experiment in vitro", "format": "cell-based"}, "[2]": {"system": "methylnitrosourea-induced mammary carcinoma", "test": "methylnitrosourea-induced mammary carcinoma of the rat, in vivo", "source_text": "as §1"}, "[3]": {"system": "chemically induced mammary carcinomas", "test": "chemically induced mammary carcinoma of the rat (7,12-dimethylbenzanthracene or methylnitrosourea), in vivo", "details": "for minimal effective dose / effect on tumor growth / general dose range for the action / general dose range for the action, especially: rat; for minimal effective dose: read-out: lowest already effective dose", "source_text": "For oral administration, hexadecylphosphocholine is used, for example, in the form of a potable solution. As carriers there are suitable, for example, milk, cocoa, fruit juice or drinking water. The preparation of such a potable solution takes place, for example, by dilution of a concentrated alcoholic solution of hexadecylphosphocholine with water or another of the previously mentioned agents. […] In the case of the tumor model used for these experiments, it is a question of a so-called hard model. This means that findings obtained with this model can also be transmitted to the human situation."}, "[4]": {"system": "7,12-dimethylbenzanthracene-induced mammary carcinoma", "test": "7,12-dimethylbenzanthracene-induced mammary carcinoma of the rat", "format": "in vivo"}, "[5]": {"details": "Pharmazie 37, 1982, pages 706-707; cited from earlier work"}, "[6]": {"details": "5 weeks, daily dose 77 μmole/kg rat orally"}}, "note": "Like-named read-outs stand apart in the source and are kept apart here.", "data": [{"compound": "CCCCCCCCCCCCCCCCCCOP(=O)([O-])OCC[N+](C)(C)C", "note": "[octadecylphosphocholine, reference compound]", "values": [{"measurement": "shortening of median survival time in comparison with the control", "setting": "[1]; [6]", "value": 72, "unit": "%"}, {"measurement": "mortality at 840 h", "setting": "[1]; in vivo, po, 77 umol/kg, 5 weeks, daily dose 77 μmole/kg rat orally, read-out: mortality (of all animals)", "value": 80, "unit": "%"}, {"measurement": "anti-tumor action", "setting": "tumors", "value": "anti-tumor effective"}, {"measurement": "toxicity", "setting": "tumors", "value": "far too toxic"}]}, {"compound": "CCCCCCCCCCCCCCOP(=O)([O-])OCC[N+](C)(C)C", "note": "[tetradecylphosphocholine, reference compound]", "values": [{"measurement": "anti-tumor action", "setting": "L1210", "value": "practically no anti-tumor action"}, {"measurement": "anti-tumor action", "setting": "[2]; in vivo, autochthonous methylnitrosourea-induced mammary carcinoma of the rat", "value": "practically no anti-tumor action"}]}, {"compound": "CCCCCCCCCCCCCCCCOP(=O)([O-])OCC[N+](C)(C)C", "note": "[hexadecylphosphocholine]", "values": [{"measurement": "action on methylnitrosourea-induced mammary carcinoma", "setting": "[2]; rat", "value": "good action"}, {"measurement": "mortality in comparison with octadecylphosphocholine-treated animals", "setting": "[1]; [6]", "value": "lower by a half"}, {"measurement": "increase of the median survival time in comparison with the controls", "setting": "[1]; 5 weeks, highly significant", "value": 26, "unit": "%"}, {"measurement": "chronic toxicity", "setting": "[1]; rat, oral", "value": "absence of a chronic toxicity"}, {"measurement": "minimal effective dose", "setting": "[3]; iv, intravenously", "value": 5, "unit": "mg/kg"}, {"measurement": "minimal effective dose", "setting": "[3]; po, orally", "value": 5, "unit": "mg/kg"}, {"measurement": "effect on tumor growth", "setting": "[3]; 10 mg./kg. body weight", "value": "cessation of growth of the tumors"}, {"measurement": "effect on tumor growth", "setting": "[3]; doses higher than 10 mg./kg.", "value": "complete disappearance of the growths"}, {"measurement": "general dose range for the action", "setting": "[3]; intravenously", "value": "5 to 50", "unit": "mg/kg"}, {"measurement": "general dose range for the action, especially", "setting": "[3]; intravenously", "value": "15 to 32", "unit": "mg/kg"}, {"measurement": "general dose range for the action", "setting": "[3]; orally", "value": "5 to 50", "unit": "mg/kg"}, {"measurement": "general dose range for the action, especially", "setting": "[3]; orally", "value": "15 to 32", "unit": "mg/kg"}, {"measurement": "remission of chemically induced mammary carcinomas", "setting": "[3]; rats, daily doses of 20, 40 and 60 mg./kg., oral", "value": "complete remission"}, {"measurement": "compatibility versus 1-octadecyl-2-methyl-rac-glycero-3-phosphocholine", "setting": "[3]; rats, oral", "value": "better compatible"}, {"measurement": "effectiveness versus 1-octadecyl-2-methyl-rac-glycero-3-phosphocholine", "setting": "[3]; rats, oral", "value": "better effective"}, {"measurement": "action on 7,12-dimethylbenzanthracene-induced mammary carcinoma", "setting": "[4]", "value": "good action"}, {"measurement": "anti-tumor action", "setting": "tumors", "value": "practically useful good anti-tumor action"}, {"measurement": "toxicity", "setting": "tumors", "value": "sufficient anti-tumor action in non-toxic doses"}, {"measurement": "anti-tumor action", "setting": "tumors; listed as Hexadecylphosphocholine", "value": "excellent anti-tumor action"}, {"measurement": "synergistic increase of antitumor action with alkylglycerols / glycerol ethers of formula I", "setting": "tumors; hexadecylphosphocholine together with alkylglycerol", "value": "synergistic action increase of the antitumor action"}, {"measurement": "lysing and fusogenic action", "setting": "[5]", "value": "a lysing and fusogenic action"}]}]}
